Measured values taken from patent publication US20130012548A1, “DEUTERIUM-SUBSTITUTED OMEGA-DIPHENYLUREA AND DERIVATIVES THEREOF AND PHARMACEUTICAL COMPOSITIONS COMPRISING THE COMPOUNDS” (SUZHOU ZELGEN BIOPHARMACEUTICAL CO., LTD., priority 2010, published 2013).

Columns and labels:
[1] = Pharmacokinetic evaluation in rats; format: in vivo; settings: Sprague-Dawley, rat, serum, male SD rats, single oral dose 3 mg/kg, in 30% PEG400; for CL/F: read-out: apparent clearance (converted); for AUC(0-inf): read-out: area under the curve (AUC0-∞); for half-life: read-out: half-life (T1/2) (converted)
Method: 8 male Sprague-Dawley rats (7-8 weeks old and body weight about 210 g) were divided into two groups, 4 in each group (rat No.: control group was 13-16; experimental group was 9-12), and orally administrated a single dose at 3 mg/kg of either compound: (a) the undeuterated N-(4-chloro-3-(trifluoromethyl)phenyl)-N′-(4-(2-(N-methyl-aminoformyl)-4-pyridyloxy)phenyl)urea (control compound CM4306) or (b) N-(4-chloro-3-(trifluoromethyl)phenyl)-N′-(4-(2-(N-(methyl-d3)-aminoformyl)-4-pyridyloxy)phenyl)urea (Compound CM4307 of the invention) prepared in Example 1. The pharmacokinetics differences were compared.
The rats were fed with the standard feed, given water and chlordiazepoxide. Chlordiazepoxide was stopped at the last night before experiment, and given again two hours after the administration of the compound. The rats were fasted for 16 hours before the test. The compound was dissolved in 30% PEG400. The time for collecting orbital blood was 0.083, 0.25, 0.5, 1, 2, 4, 6, 8 and 24 hours after administrating the compounds.
The rats were anaesthetized briefly by inhaling ether. A 300 μL orbital blood sample was collected into the tubes containing a 30 μl 1% heparin saline solution. The tubes were dried overnight at 60° C. before being used. After the blood samples were sequentially collected, the rats were anaesthetized by ether and sacrificed.
After the blood samples were collected, the tubes were gently reversed at least five times immediately to mix the contents sufficiently, and placed on the ice. The blood samples were centrifuged at 4° C. at 5000 rpm for 5 minutes to separate the serum and red blood cells. 100 μL serum was removed to a clean plastic centrifugal tube by pipettor, and the name of the compound and time point were labeled on the tube. Serum was stored at −80° C. before LC-MS analysis.

[2] = tested on: Human Hepatocellular Carcinoma SMMC-7721; assay: Inhibition of tumor growth of SMMC-7721 in nude mice xenograft model; format: in vivo, Balb/c nu/nu nude mice; settings: 100 mg/kg po qd × 2 weeks
Method: 70 Balb/c nu/nu nude mice, 6 weeks old, female, were bought from Shanghai Experimental Animal Resource Center (Shanghai B&K Universal Group Limited).
SMMC-7721 cells were commercially available from Shanghai Institutes for Biological Science, CAS (Shanghai, China).
The establishment of tumor nude mice xenograft model: SMMC-7721 cells in logarithmic growth period were cultured. After cell number was counted, the cells were suspended in 1×PBS, and the number of the cell in suspension was adjusted to 1.5×10^7/ml. The tumor cells were inoculated under the skin of right armpit of nude mice with a 1 ml syringe, 3×10^6/0.2 ml/mice. 70 nude mice were inoculated in total.
When the tumor size reached 30-130 mm^3, 58 mice were divided randomly into different groups. […]
Animal body weight and tumor size were tested twice a week during the experiment. Clinical symptoms were recorded every day. At the end of the administration, the tumor size was recorded by taking pictures. […]
The formula for calculating the tumor volume (TV) is: TV=a×b^2/2, wherein a, b independently represent the length and the breadth of the tumor. The formula for calculating the relative tumor volume (RTV) is: RTV=Vt/V0, wherein V0 is the tumor volume at the beginning of the administration, and Vt is the tumor […] when measured. […]

| CL/F [1] | AUC(0-inf) [1] | half-life [1] | SMILES | increase of relative value of tumor inhibition compared with CM4306 (32.2%/19.6%−1) [2] |
| --- | --- | --- | --- | --- |
| 6.83 mL/min/kg | 7330 ± 336 ng·h/mL | 8.6 ± 1.4 h | CNC(=O)c1cc(Oc2ccc(NC(=O)Nc3ccc(Cl)c(C(F)(F)F)c3)cc2)ccn1 [CM4306, N-(4-chloro-3-(trifluoromethyl)phenyl)-N′-(4-(2-(N-methylaminoformyl)-4-pyridyloxy)phenyl)urea, reference compound] |  |
| 4.58 mL/min/kg | 11300 ± 2470 ng·h/mL | 11.3 ± 2.1 h | [2H]C([2H])([2H])NC(=O)c1cc(Oc2ccc(NC(=O)Nc3ccc(Cl)c(C(F)(F)F)c3)cc2)ccn1 [CM4307, N-(4-chloro-3-(trifluoromethyl)phenyl)-N′-(4-(2-(N-(methyl-d3)aminoformyl)-4-pyridyloxy)phenyl)urea] | about 60% |
